Laboratory results published in patent US20230241256A1, “NON-INTUITIVE COMBINATION OF DRUG DELIVERY CARRIERS OF THE SAME DRUG FOR SYNERGISTIC GROWTH DELAY OF SOLID TUMORS” (The Johns Hopkins University, priority 2020, published 2023).

Key:
[1] = system: Trastuzumab-resistant BT474-R breast cancer cells; experiment: Clonogenic (colony) survival, BT474-R; format: cell-based, human; conditions: 6 hour incubation at 37° C.; pH 7.4 or 6.0; monolayers
Procedure: (§1) Cold conditions of liposomes and the antibody are indicated at zero radioactivity concentration. Error bars correspond to standard deviations of repeated measurements (4-6 samples per radioactivity concentration);
(§2) After incubation for 6 hours of cell monolayers with varying concentrations of radioactivity, the cells were washed and were plated in dishes to grow until formation of colonies, as described in detail in Prasad et al., 2021.

[2] = system: Trastuzumab-sensitive BT474 breast cancer cells; experiment: Clonogenic (colony) survival, BT474; format: cell-based, human; conditions: 6 hour incubation at 37° C.; pH 7.4 or 6.0; monolayers
Procedure: as §1, §2

Compound: O=C([O-])CN1CCN(CC(=O)[O-])CCN(CC(=O)[O-])CCN(CC(=O)[O-])CC1.[225Ac+3] [free [^225Ac]Ac-DOTA]
- colony survival response [1]: same sensitivity
- colony survival response [2]: same sensitivity
